How the values were obtained:
[1] = test system: Salmonella minnesota ReLPS sensitized sheep erythrocytes; test: LPS hemagglutination assay (MAC); type: binding
Procedure: For hemagglutination assays, erythrocytes were sensitized with LPS as follows. One ml of 1% erythrocyte suspension (human 0 type, C3H/HeN mouse or sheep) was mixed with 0.2 ml of LPS solution and incubated at 37° C. for 30 min, followed by washing with phosphate buffered saline (PBS), and then the concentration of suspension was adjusted to 1.0%. In the case of S-LPS, the solution was heated at 100° C. for 1 hour before sensitization of erythrocytes. […] Activity of CAP was expressed as a minimum agglutinating concentration (MAC) of CAP. According to the method of Kirikae et al. (1986) Microbiol. Immunol. 30:269-274, 50 μl of 2-fold serial dilution of Re-LPS was added to 50 μl of 1.0% rabbit erythrocyte suspension, and incubated at 37° C. for 3 hour. Minimum agglutinating concentration of Re-LPS was expressed as 1 HA unit.

[2] = test system: thioglycollate-stimulated murine peritoneal macrophages; test: LPS-induced tissue factor generation by macrophages (clotting assay); type: cell-based; details: peptides 1 μg/ml incubated with S. minnesota smooth LPS 5 minutes; 6 hr
Procedure: Tissue factor assay. Salmonella minnesota smooth LPS was incubated with each peptide (1 μg/ml) for 5 min., then the mixture was added to peritoneal murine macrophages obtained 4 days after thioglycollate stimulation. Cells were cultured for 6 hours prior to assay of tissue factor by clotting assay.
Various concentrations of Salmonella minnesota smooth LPS were incubated with each peptide (197 (RNIP), 36-1, 32-1, and 50-2) at 37° C. for 5 minutes prior to mixing with thioglycollate-stimulated murine peritoneal macrophages. Production of tissue factor after 6 hr. was measured by clotting assay. […] In the absence of LPS no tissue factor is synthesized by these cells.

prothrombin (factor II) [3] = target: prothrombin (factor II) (Homo sapiens, UniProt P00734); test: Prothrombin activation by Echis Carinatus venom (ECV); type: biochemical
Procedure: Prothrombin activation by Echis Carinatus venom (ECV). A reaction mixture of prothrombin (factor II) (0.1 unit/ml, 200 μl), ECV (1 unit/ml, 200 μl), various concentration of peptide (70 μl), 50 μl of 25 mM-CaCl2 and 180 μl of Tris buffer was incubated at 37° C. for 10 min. To 300 μl of the reaction mixture, 60 μl of 4 mM-thrombin substrate and 240 μl of buffer was added and further incubated for 15 min.

Human plasma = test: Prothrombin time (PT); type: biochemical
Procedure: Prothrombin time (PT). Human plasma (100 μl) was incubated with 100 μl of each peptide at 37° C. for 3 min., then 100 μl of tissue factor (250 μg/ml) CaCl2 was added and clotting time was measured.

Salmonella typhimurium = test: Antibacterial CFU assay; details: for anti-bacterial activity (CFU), in words: Salmonella typhimurium, smooth strain; for effect on CFU of S. typhimurium: high concentrations alone and in various combinations
Salmonella minnesota Re = test: Antibacterial CFU assay
RAW 264.7 cells = test: LPS- or IFNγ-induced reactive nitrogen intermediate (RNI) production, Griess nitrite assay; type: cell-based, murine; details: macrophages / RAW 264.7 cells
Procedure: From the sequence of the CAP18 cDNA, it was apparent that the putative N-terminal peptide of CAP18 was in fact an internal fragment of the CAP18 protein. We therefore tried to reconfirm the original protein sequence. Neutrophil-derived heparin bound cationic proteins were prepared as described above and applied to a C18 reverse phase HPLC (FIG. 1). We sequenced the major peaks. Peaks at fractions 14.5 and 15.2 correspond to defensins MCP1 and MCP2 (Territo et al. (1989) J. Clin. Invest. 84:2017-2019), respectively. Fraction 25.8 is macrophage related protein 14 (MRP14) (Odink et al. (1987) Nature 330:80-82). The fraction at 20.3 minutes corresponds to a fragment of CAP18 of approximately 4-5 kD. […] The murine macrophage cell line RAW 264.7 (obtained from ATCC) and thioglycollate-elicited murine peritoneal exudate cells are used to produce RNI. Cells are cultured at 1×10^6 /ml. in RPMI-1640 +2.5% FCS in 24 well plates in the presence or absence of different concentrations of LPS or murine rlFNγ. After 24 hr. incubation at 37° C., the cell free supernatant is collected and tested for the presence of RNI. Accumulation of nitrite in the medium is measured by a calorimetric assay based on the Griess reaction (Green et al. (1982) Anal. Biochem. 126:11) using sodium nitrite as standards. Sample (50 μl) is mixed with 50 μl of Griess reagent (1% sulfanilamide, 0.1% naphthalene diamine dihydrochloride, 2.5% H3 PO4) and after 10 min. at room temperature absorbance is read at 570 nm.

prothrombin (factor II) [4] = target: prothrombin (factor II)
tissue factor generation = test: Effect of CAP-37 on LPS-induced tissue factor generation; type: cell-based; details: for Tissue factor units / Tissue factor units, value in parentheses (ratio to control): CAP-37 15 HA
Procedure: Table 6 presents a comparison of the effect of RNIP, CAP18, and defensins HP-1 and HP-2 (Territo et al. (1989) J. Clin. Invest. 84:2017-2019) on LPS-induced tissue factor generation. Tissue factor assays were performed as follows. Mouse peritoneal cells were elicted with an intraperitoneal injection of thioglycolate medium and harvested 5-days later by irrigation with pyrogen-free saline. The cells were washed with RPMI 1640 medium, counted and resuspended at a concentration of 1.5-2.0×10^6 /ml in serum-free RPMI medium containing glutamine (0.29 mg/ml), penicillin (50 units/ml) and streptomycin ([…]). Adherent cells were prepared by incubating 10 ml of a cell suspension (in RPMI 1640 media in sterile culture bottle (Nunclon, 50 ml, Inter Med) for 60 min. at 37° C. in a 5% CO2 atmosphere. The plastic adherent cells were recovered by scraping of the bottle with a sterile rubber policeman. The adherent cells were then washed twice with RPMI media, resuspended in serum-free medium (1×10^6 /ml) in culture tube (Nunc cryotube, Inter Med), and stimulated with graded doses of LPS for 6 hr. at 37° C. in a 5% CO2. The cell suspension was centrifuged and cell pellet was frozen at -80° C. until clotting assays were run.
Veronal buffered saline (VBS) was added to the cell pellet, lysed by 3 cycles of freeze/thaw and sonicated for 10 sec with a hand-held sonicator microbe (Handy Sonic, model UR-20P, Tomy Seiko LTD, Tokyo). Tissue factor activity was tested in modified unactivated partial thromboplastin time (7). One tenth ml of cell lysate (1×10^6 /ml) was preincubated with mouse plasma at 37° C. for 3 min. Then 0.1 ml of 25 mM-CaCl2 which contains phospholipid was added to the mixture and clotting time was measured using a fibrometer (Bio Quest Division, Becton Dickinson, Cokeysville, USA). A standard curve obtained from serial two-fold dilutions of rabbit brain thromboplastic (Simplastin, Ono Pharmaceutical Co.) was used to transpose tissue factor activity into arbitrary tissue factor units (1 μg/ml) suspension of rabbit brain was assigned a value of 1,000 units).
.dagger.LPS was incubated with CAP37 at 37° C. for 2 hours, and th
mixture was added to cells, then cultured for 6 hours.

21-1: synthetic rabbit RNIP fragment, amino acids 135-151 of SEQ ID NO:4 (GLRKRLRKFRNKIKEKL) [Peptide 21-1]
Hemagglutination [MAC], minimum agglutinating concentration [1]: > 125 µg/mL

32-1: synthetic rabbit RNIP fragment, amino acids 135-143 of SEQ ID NO:4 (GLRKRLRKF) [Peptide 32-1]
inhibition of LPS induced tissue factor (in words) [2]: fail to inhibit | inhibition of Echis carinatus venom activation of purified factor II to IIa (in words) (prothrombin (factor II) [3]): inactive | inhibition of the prothrombin time (PT), in words (Human plasma): inactive | effect of pretreatment on bacterial killing by peptide 197 (Salmonella typhimurium; S. typhimurium pretreated with peptide 32-1, then peptide 197): no inhibition or augmentation | anti-bacterial activity (CFU), in words (Salmonella typhimurium): not active | effect on CFU of S. typhimurium (Salmonella typhimurium): No effect | anti-bacterial activity (CFU), in words (Salmonella minnesota Re): not active | Hemagglutination [MAC], minimum agglutinating concentration [1]: > 125 µg/mL

34-1: synthetic rabbit RNIP fragment, amino acids 140-166 of SEQ ID NO:4 (LRKFRNKIKEKLKKIGQKIQGLLPKLA) [Peptide 34-1]
Hemagglutination [MAC], minimum agglutinating concentration [1]: > 125 µg/mL

50-1: synthetic rabbit RNIP fragment, amino acids 147-171 of SEQ ID NO:4 (IKEKLKKIGQKIQGLLPKLAPRTDY) [Peptide 50-1]
Hemagglutination [MAC], minimum agglutinating concentration [1]: > 125 µg/mL

50-2: synthetic rabbit RNIP fragment, amino acids 147-171 of SEQ ID NO:4 (IKEKLKKIGQKIQGLLPKLAPRTDY) [Peptide 50-2]
inhibition of LPS induced tissue factor (in words) [2]: fail to inhibit | inhibition of Echis carinatus venom activation of purified factor II to IIa (in words) (prothrombin (factor II) [3]): inactive | inhibition of the prothrombin time (PT), in words (Human plasma): inactive | anti-bacterial activity (CFU), in words (Salmonella typhimurium): not active | effect on CFU of S. typhimurium (Salmonella typhimurium): No effect | anti-bacterial activity (CFU), in words (Salmonella minnesota Re): not active | Hemagglutination [MAC], minimum agglutinating concentration [1]: > 125 µg/mL

52-1: synthetic rabbit RNIP fragment, amino acids 143-169 of SEQ ID NO:4 (FRNKIKEKLKKIGQKIQGLLPKLAPRT) [Peptide 52-1]
Hemagglutination [MAC], minimum agglutinating concentration [1]: > 125 µg/mL

52-2: synthetic rabbit RNIP fragment, amino acids 143-170 of SEQ ID NO:4 (FRNKIKEKLKKIGQKIQGLLPKLAPRTD) [Peptide 52-2]
Hemagglutination [MAC], minimum agglutinating concentration [1]: > 125 µg/mL

52-3: synthetic rabbit RNIP fragment, printed as amino acids 132-171 of SEQ ID NO:4 (EPTGLRKRLRKFRNKIKEKLKKIGQKIQGLLPKLAPRTDY) [Peptide 52-3]
Hemagglutination [MAC], minimum agglutinating concentration [1]: > 125 µg/mL

54-1: synthetic rabbit RNIP fragment, amino acids 139-170 of SEQ ID NO:4 (RLRKFRNKIKEKLKKIGQKIQGLLPKLAPRTD) [Peptide 54-1]
Hemagglutination [MAC], minimum agglutinating concentration [1]: > 125 µg/mL

54-2: synthetic rabbit RNIP fragment, amino acids 139-171 of SEQ ID NO:4 (RLRKFRNKIKEKLKKIGQKIQGLLPKLAPRTDY) [Peptide 54-2]
Hemagglutination [MAC], minimum agglutinating concentration [1]: > 125 µg/mL

187: synthetic rabbit RNIP fragment, amino acids 151-171 of SEQ ID NO:4 (LKKIGQKIQGLLPKLAPRTDY) [Peptide 187]
Hemagglutination [MAC], minimum agglutinating concentration [1]: > 125 µg/mL | inhibition of LPS-induced RNI production (in words) (RAW 264.7 cells): inactive

polymyxin B [reference compound]
inhibition of LPS-induced RNI production (in words) (RAW 264.7 cells): inhibition

GLRKRLRKFRNKIKEKLKKIGQKIQGLLPKLAPRTDY [synthetic rabbit RNIP peptide 197]
IC50, factor II activation by Xa (prothrombin (factor II) [4]): 50 nM

GLRKRLRKFRNKIKEKLKKIGQKIQGLLPKLA [synthetic rabbit RNIP peptide 36-1]
IC50, factor II activation by Xa (prothrombin (factor II) [4]): < 30 nM

B1: CAP-37: another cationic peptide, azurocidin (CAP37) (Morgan et al.) (protein, UniProt P20160 27-248, looked up)
Azurocidin: IVGGRKARPRQFPFLASIQNQGRHFCGGALIHARFVMTAASCFQSQNPGVSTVVLGAYDLRRRERQSRQTFSISSMSENGYDPQQNLNDLMLLQLDREANLTSSVTILPLPLQNATVEAGTRCQVAGWGSQRSGGRLSRFPRFVNVTVTPEDQCRPNNVCTGVLTRRGGICNGDGGTPLVCEGLAHGVASFSLGPCGRGPDFFTRVALFRDWIDGVLNNPGP
inhibition of tissue factor generation (in words) (tissue factor generation): unable to inhibit tissue factor generation | Tissue factor units (tissue factor generation; LPS 0.1 μg/ml): 383 ± 307 units /1 × 10^5 cells | Tissue factor units, value in parentheses (ratio to control) (tissue factor generation; LPS 0.1 μg/ml): 2.3 | Tissue factor units (tissue factor generation; LPS 1.0 μg/ml): 648 ± 343 units /1 × 10^5 cells | Tissue factor units, value in parentheses (ratio to control) (tissue factor generation; LPS 1.0 μg/ml): 3.9 | Tissue factor units (tissue factor generation; no LPS): 183 ± 67 units /1 × 10^5 cells | Tissue factor units, value in parentheses (ratio to control) (tissue factor generation; no LPS): 1.1
